Patent US8247211B2, “Glycopeptide antibiotics” (American Cyanamid Company, priority 2001, dated 2012)
≈ marks a conversion by molar mass, not a printed value.

Columns and labels:
Staphylococcus sp. = experiment: In vitro antibacterial evaluation: minimum inhibitory concentration (MIC), broth dilution method; format: cell-based; settings: strain SMITH GC 4543; broth dilution, 18 hours at 35° C.
Summary of the method: (§1)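 Following NCCLS approved standard M7-A2, compounds are serially diluted from 64 to 0.06 μg/mL in Muller-Hinton II […] and inoculated at 5×10^5 CFU/mL; the MIC is the minimum concentration at which growth is inhibited.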

Enterococcus sp. = experiment: as above; format: cell-based; settings: broth dilution, 18 hours at 35° C.
Summary of the method: as §1

Streptococcus sp. = experiment: as above; format: cell-based; settings: broth dilution, 18 hours at 35° C.
Summary of the method: as §1

Escherichia coli = experiment: as above; format: cell-based; settings: broth dilution, 18 hours at 35° C.
[1] = Anatomic pathology (heart and kidney histopathology) in mice; format: in vivo, CD-1 mice; settings: 20 mg/kg intravenously daily for 9 days, microscopic histopathology on day 10
Description: 20-day-old CD-1 mice were divided into a vehicle control group (5 mice) and a treatment group (5 mice). Samples of glycopeptide antibiotics were administered at 20 mg/kg intravenously daily for 9 days.
Samples of tissues from necropsied mice were formalin-fixed, paraffin-embedded, sectioned, stained with hematoxylin and eosin, and examined microscopically. Histopathologic findings were recorded. These findings were subjectively graded on a scale corresponding to slight, mild, moderate, marked and severe as compared to untreated controls.

CC(=O)Nc1cc(CC2NC(=O)C(C(C)c3ccccc3)NC(=O)CNC(=O)C(CO)NC(=O)C(C(O)C3CNC(=N)N3C3OC(CO)C(O)C(O)C3O)NC(=O)C(C(O)C3CNC(=N)N3)NC2=O)ccc1O (stereo not drawn) [Example 13, Cyclo[glycyl-β-methylphenylalanyl-3-acetamidotyrosyl-3-(2-iminoimidazolidin-4-yl)seryl-3-(3-hexopyranosyl-2-iminoimidazolidin-4-yl)serylseryl]]
MIC Staphylococcus aureus-SMITH (GC 4543) (Staphylococcus sp.): 64 µg/mL (≈ 62.3 µM)
MIC Enterococcus avium (GC 4558) (Enterococcus sp.; Enterococcus avium (GC 4558)): 64 µg/mL (≈ 62.3 µM)
MIC Enterococcus faecalis (ATCC 29212) (Enterococcus sp.; Enterococcus faecalis (ATCC 29212)): >64 µg/mL
MIC Enterococcus faecalis (GC 2242) (Enterococcus sp.; Enterococcus faecalis (GC 2242)): 64 µg/mL (≈ 62.3 µM)
MIC Enterococcus faecalis (GC 2691) (Enterococcus sp.; Enterococcus faecalis (GC 2691)): >64 µg/mL
MIC Enterococcus faecalis (GC 3059) (Enterococcus sp.; Enterococcus faecalis (GC 3059)): >64 µg/mL
MIC Enterococcus faecalis (GC 4552) (Enterococcus sp.; Enterococcus faecalis (GC 4552)): >64 µg/mL
MIC Enterococcus faecalis (GC 4553) (Enterococcus sp.; Enterococcus faecalis (GC 4553)): 64 µg/mL (≈ 62.3 µM)
MIC Enterococcus faecalis (GC 4554) (Enterococcus sp.; Enterococcus faecalis (GC 4554)): >64 µg/mL
MIC Enterococcus faecalis (GC 6189) (Enterococcus sp.; Enterococcus faecalis (GC 6189)): >64 µg/mL
MIC Enterococcus faecium (GC 2243) (Enterococcus sp.; Enterococcus faecium (GC 2243)): 64 µg/mL (≈ 62.3 µM)
MIC Enterococcus faecium (GC 4556) (Enterococcus sp.; Enterococcus faecium (GC 4556)): 64 µg/mL (≈ 62.3 µM)
MIC Enterococcus faecium (GC 4557) (Enterococcus sp.; Enterococcus faecium (GC 4557)): 64 µg/mL (≈ 62.3 µM)
MIC Enterococcus avium (GC 4558) (Enterococcus sp.): 64 µg/mL (≈ 62.3 µM)
MIC Enterococcus faecalis (ATCC 29212) (Enterococcus sp.): >64 µg/mL
MIC Enterococcus faecalis (GC 2242) (Enterococcus sp.): 64 µg/mL (≈ 62.3 µM)
MIC Enterococcus faecalis (GC 2691) (Enterococcus sp.): >64 µg/mL
MIC Enterococcus faecalis (GC 3059) (Enterococcus sp.): >64 µg/mL
MIC Enterococcus faecalis (GC 4552) (Enterococcus sp.): >64 µg/mL
MIC Enterococcus faecalis (GC 4553) (Enterococcus sp.): 64 µg/mL (≈ 62.3 µM)
MIC Enterococcus faecalis (GC 4554) (Enterococcus sp.): >64 µg/mL
MIC Enterococcus faecalis (GC 6189) (Enterococcus sp.): >64 µg/mL
MIC Enterococcus faecium (GC 2243) (Enterococcus sp.): 64 µg/mL (≈ 62.3 µM)
MIC Enterococcus faecium (GC 4556) (Enterococcus sp.): 64 µg/mL (≈ 62.3 µM)
MIC Enterococcus faecium (GC 4557) (Enterococcus sp.): 64 µg/mL (≈ 62.3 µM)
MIC Streptococcus agalactiae (GC 4564) (Streptococcus sp.; Streptococcus agalactiae (GC 4564)): 16 µg/mL (≈ 15.6 µM)
MIC Streptococcus pneumoniae (ATCC 6301) (Streptococcus sp.; Streptococcus pneumoniae (ATCC 6301)): 4 µg/mL (≈ 3.89 µM)
MIC Streptococcus pneumoniae (GC 1894) (Streptococcus sp.; Streptococcus pneumoniae (GC 1894)): 2 µg/mL (≈ 1.95 µM)
MIC Streptococcus pneumoniae (GC 4565) (Streptococcus sp.; Streptococcus pneumoniae (GC 4565)): 4 µg/mL (≈ 3.89 µM)
MIC Streptococcus pyogenes (GC 4563) (Streptococcus sp.; Streptococcus pyogenes (GC 4563)): 8 µg/mL (≈ 7.78 µM)
MIC Streptococcus agalactiae (GC 4564) (Streptococcus sp.): 16 µg/mL (≈ 15.6 µM)
MIC Streptococcus pneumoniae (ATCC 6301) (Streptococcus sp.): 4 µg/mL (≈ 3.89 µM)
MIC Streptococcus pneumoniae (GC 1894) (Streptococcus sp.): 2 µg/mL (≈ 1.95 µM)
MIC Streptococcus pneumoniae (GC 4565) (Streptococcus sp.): 4 µg/mL (≈ 3.89 µM)
MIC Streptococcus pyogenes (GC 4563) (Streptococcus sp.): 8 µg/mL (≈ 7.78 µM)
MIC Escherichia coli (ATCC 25922) (Escherichia coli): >64 µg/mL
MIC Escherichia coli (GC 4559) (Escherichia coli): >64 µg/mL
MIC Escherichia coli (GC 4560) (Escherichia coli): 32 µg/mL (≈ 31.1 µM)

N=C1NCC(C(O)C2NC(=O)[C@H](C(O)C3CNC(=N)N3)NC(=O)C(Cc3ccc(O)cc3)NC(=O)[C@H](Cc3ccccc3)NC(=O)CNC(=O)[C@H](CO)NC2=O)N1 (stereo in doubt) [Example 280a, Cyclo[glycylphenylalanyltyrosyl-3-(2-iminoimidazolidin-4-yl)seryl-3-(2-iminoimidazolidin-4-yl)serylseryl]]
Anatomical Pathology (Day 10), Heart [1]: 0
Anatomical Pathology (Day 10), Kidney [1]: ++
